Experimental data reported in patent US20170128592A1, “TARGETED POLYMERIC NANO-COMPLEXES AS DRUG DELIVERY SYSTEM” (Indian Institute of Technology, Bombay, priority 2015, published 2017).

Legend:
Assay type in all cases: cell-based, human
[1] = system: Huh7 cells; experiment: SRB cytotoxicity assay; conditions: Huh7, 48 hr incubation, mean ± SD of three experiments
Experimental: For cytotoxicity measurements, Hep G2 and Huh7 cells were incubated in 96-well plates (Nunc, USA) at 5×10^4 cells/well density and then treated with bare PLGA-b-PEG NP, Cet-PLEA-b-PEG NP (50-250 μg/mL), free drug CA4, its nano-complexes ([…]) and free drug 2 ME, its nano-complexes (1-15 μM) for 48 hr. […] The standard SRB assay was used to measure the cell viabilities. The absorbance was measured with a 96-well fluorescence plate reader (SPECTRAmax M2, Molecular Devices, USA) equipped with the SOFTmax Pro software (Molecular Devices), at a 550 nun wavelength. IC50 values of the free drugs and all the nanocomplexes were evaluated using OriginPro 8.0 software.

[2] = system: pHistone H3 in Huh7 cells; experiment: Immunofluorescence of Histone H3 phosphorylation (Serine 10); conditions: 48 hr
Experimental: (§1) To evaluate the effect of nanocomplexes on EGFR and tubulin interactions, Huh7 cells (5×10^4 cells/well) in 24 well plates were treated with 15 nM of CA4, PLGA-b-PEG-CA4 NP, Cet-PLGA-b-PEG-CA4 NP, 5 μM of 2 ME, PLGA-b-PEG-2 ME NP, Cet-PLGA-b-PEG-2 ME NP and combinatorial Cet-PLEA-b-PEG-CA4 NP+Cet-PLGA-b-PEG-2 ME NP (15 nM+5 μM) for 48 hr. Untreated and bare PLGA-b-PEG NP treated cells served as the negative controls. Cells were then fixed with 3.7% formaldehyde at 37° C. for 30 min and immunostained with primary antibodies anti-EGFR, anti-pEGFR XP rabbit monoclonal antibodies (Cell Signaling Technology Inc., USA), anti-α-Tubulin mouse monoclonal antibody (Signa Aldrich, USA) and anti-pHistone H3 rabbit polyclonal antibody (Ser-10, Santa Cruz Biotechnology, USA) followed by incubation with secondary antibody FITC-conjugated anti-mouse IgG or FITC-conjugated anti-rabbit IgG (Sigma Aldrich, USA) or anti-mouse IgG-Alexa 568 conjugate (Invitrogen, USA). Hoechst 33258 was used for DNA counterstaining and cells were examined under CLSM.

[3] = system: Huh7 cells; experiment: Annexin V/PI apoptosis assay by flow cytometry; conditions: IC50 concentrations, 48 hr
Experimental: Annexin V and Propidium iodide (PI) staining detection kit was used to quantify apoptotic cells. […] A combination of Cet-PLGA-b-PEG-CA4 NP Cet-PLEA-b-PEG-2ME NP (15 nM+5 μM) was also evaluated. Untreated and bare PLGA-b-PEG NP treated cells served as the negative controls. Cells were washed twice with PBS and resuspended in 400 μL of 1× binding buffer. Then, 5 μL of Annexin V-FITC and PI solution were added to the test samples, incubated for 15 min in dark at room temperature, and analyzed using flow cytometer BD FACS ARIA special order system equipped with the BD FACSDiva. (Becton and Dickinson, USA) software program. The fluorescence of 20,000 cells were gated and counted for each sample.

[4] = system: pEGFR expression in Huh7 cells; experiment: Immunofluorescence (CLSM) of pEGFR expression; conditions: 48 hr
Experimental: as §1

Compound	IC50 [1] [nM]	pHistone H3 positive cells ([2]; 5 μM) [%]	induction of apoptosis [3] [%]	effect on pEGFR expression by CLSM ([4]; 5 μM)	pHistone H3 positive cells ([2]; 15 nM) [%]	effect on pEGFR expression by CLSM ([4]; 15 nM)
COc1cc2c(cc1O)CC[C@@H]1[C@@H]2CC[C@]2(C)[C@@H](O)CC[C@@H]12 [2 ME, 2-methoxyestradiol]	3500	2±0.7	2.6	moderately affected	–	–
COc1ccc(/C=C\c2cc(OC)c(OC)c(OC)c2)cc1O [CA4, combretastatin A4]	14.9	–	11.5	–	4±0.3	moderately affected
